Results taken from article PMC12114444, “Biochemical Characterization and Polyester-Binding/Degrading Capability of Two Cutinases from Aspergillus fumigatus” (Microorganisms, 2025).

Test system: AfCutB
Conditions: 30 °C, 5 min; standard assay 0.05 M Tris-HCl pH 8.5 (results text: optimal conditions, optimum pH 9.0)

## CCCC(=O)Oc1ccc([N+](=O)[O-])cc1 [p-nitrophenyl butyrate]
  Km: 6.29 mM
